For orientation: IC50 means the concentration needed to halve the response being measured.

Bounds are passed on as bounds.

In the assay the target is SMYD3 (Homo sapiens (Human), UniProt Q9H7B4). Nature of the assay: SMYD3 biochemical assay (SPA, 3H-SAM methylation of MEKK2 protein substrate). Particulars: read-out: SMYD3 Biochem IC50 (μM)*. In outline: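 Tritium incorporation into GST-MEKK2 is counted by scintillation proximity after citric acid bead capture. Native human SMYD3 is preincubated with test compound for 30 min at room temperature at pH 8.0 (Tris-Cl, TCEP, BSG, Tween 20) before 3H-SAM and substrate are added; cold SAM at 100 uM final stops turnover.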
Regarding `CC[C@H]1CN(C(=O)C2CCC(N)CC2)CC[C@@H]1NC(=O)c1cc(C2CC2)on1` (stereo partly drawn) [compound 93, N-((3S,4S)-1-(4-aminocyclohexane-1-carbonyl)-3-ethylpiperidin-4-yl)-5-cyclopropylisoxazole-3-carboxamide], the IC50 was found to be 1.61 µM.
The figure for `CC[C@H]1CC(NC(=O)c2cc(C3CC3)on2)CCN1C(=O)[C@H]1CC[C@H](N)CC1` (stereo partly drawn) [compound 94, N-((2S)-1-((1r,4S)-4-aminocyclohexane-1-carbonyl)-2-ethylpiperidin-4-yl)-5-cyclopropylisoxazole-3-carboxamide] is 2.38 µM; for `C[C@@H]1CC(NC(=O)c2cc(C3CC3)on2)CCN1C(=O)[C@@H]1CC[C@@H](N)C1` (stereo partly drawn) [compound 95, N-((2R)-1-((1R,3R)-3-aminocyclopentane-1-carbonyl)-2-methylpiperidin-4-yl)-5-cyclopropylisoxazole-3-carboxamide] it is 0.532 µM.
The figure for `C[C@@H]1CC(NC(=O)c2cc(C3CC3)on2)CCN1C(=O)[C@@H]1CC[C@H](N)C1` (stereo partly drawn) [compound 96, N-((2R)-1-((1R,3S)-3-aminocyclopentane-1-carbonyl)-2-methylpiperidin-4-yl)-5-cyclopropylisoxazole-3-carboxamide] is 1.9 µM.
The figure for `C[C@@H]1CC(NC(=O)c2cc(C3CC3)on2)CCN1C(=O)[C@H]1C[C@H](N)C1` (stereo partly drawn) [compound 97, N-((2R)-1-((1r,3R)-3-aminocyclobutane-1-carbonyl)-2-methylpiperidin-4-yl)-5-cyclopropylisoxazole-3-carboxamide] is 0.779 µM; for `CCCC1CC(NC(=O)c2cc(C3CC3)on2)CCN1C(=O)[C@H]1CC[C@H](N)CC1` (stereo partly shown) [compound 98, N-(1-((1r,4r)-4-aminocyclohexane-1-carbonyl)-2-propylpiperidin-4-yl)-5-cyclopropylisoxazole-3-carboxamide] it is 0.655 µM; for `N[C@H]1CC[C@H](C(=O)N2CCC(NC(=O)c3cc(C4CC4)on3)CC23CCC3)CC1` (stereo partly shown) [compound 100, N-(5-((1r,4r)-4-aminocyclohexane-1-carbonyl)-5-azaspiro[3.5]nonan-8-yl)-5-cyclopropylisoxazole-3-carboxamide] it is 2.2 µM.
Turning to `N[C@H]1CC[C@H](C(=O)N2[C@@H]3CC[C@H]2C[C@H](NC(=O)c2cc(C4CC4)on2)C3)CC1` [compound 101, N-((1R,3S,5S)-8-((1r,4R)-4-aminocyclohexane-1-carbonyl)-8-azabicyclo[3.2.1]octan-3-yl)-5-cyclopropylisoxazole-3-carboxamide], the IC50 is over 10 µM.
The figure for `C[C@H]1CC(NC(=O)c2cc(C3CC3)on2)CCN1C(=O)CC(C)(C)CN` (stereo partly drawn) [compound 103, N-((2S)-1-(4-amino-3,3-dimethylbutanoyl)-2-methylpiperidin-4-yl)-5-cyclopropylisoxazole-3-carboxamide] is 1.45 µM.
As to `C[C@@H]1CC(NC(=O)c2cc(C3CC3)on2)CCN1C(=O)CC(C)(C)CN` (stereo partly drawn) [compound 104, N-((2R)-1-(4-amino-3,3-dimethylbutanoyl)-2-methylpiperidin-4-yl)-5-cyclopropylisoxazole-3-carboxamide], the IC50 was 0.566 µM.
For the compound `C[C@H]1CC(NC(=O)c2cc(C3CC3)on2)CCN1C(=O)[C@H]1CC[C@H](N(C)C)CC1` (stereo partly drawn) [compound 105, 5-cyclopropyl-N-((2S)-1-((1r,4S)-4-(dimethylamino)cyclohexane-1-carbonyl)-2-methylpiperidin-4-yl)isoxazole-3-carboxamide], the IC50 came to 20 µM.
With `C[C@H]1CC(NC(=O)c2cc(C3CC3)on2)CCN1C(=O)[C@H]1CCC[C@H](N)C1` (stereo partly drawn) [compound 106, N-((2S)-1-((1S,3S)-3-aminocyclohexane-1-carbonyl)-2-methylpiperidin-4-yl)-5-cyclopropylisoxazole-3-carboxamide], the IC50 was found to be 3.52 µM.
The figure for `C[C@@H]1CC(NC(=O)c2cc(C3CC3)on2)CCN1C(=O)C1CCCNC1` (stereo partly drawn) [compound 107, 5-cyclopropyl-N-((2R)-2-methyl-1-(piperidine-3-carbonyl)piperidin-4-yl)isoxazole-3-carboxamide] is 2.52 µM; for `N[C@H]1CC[C@H](C(=O)N2CCC(NC(=O)c3cc(C4CC4)on3)CC2Cc2ccccc2)CC1` (stereo partly shown) [compound 108, N-(1-((1r,4r)-4-aminocyclohexane-1-carbonyl)-2-benzylpiperidin-4-yl)-5-cyclopropylisoxazole-3-carboxamide] it is 1.42 µM.
With `NC[C@H](Cc1ccc(O)c(C(F)(F)F)c1)C(=O)N1CCC(NC(=O)c2cc(C3CC3)on2)CC1` [compound 111, (S)-N-(1-(3-amino-2-(4-hydroxy-3-(trifluoromethyl)benzyl)propanoyl)piperidin-4-yl)-5-cyclopropylisoxazole-3-carboxamide], the IC50 is 2.47 µM.
The figure for `CC(C)c1cc(C[C@H](CN)C(=O)N2CCC(NC(=O)c3cc(C4CC4)on3)CC2)ccc1O` [compound 112, (R)-N-(1-(3-amino-2-(4-hydroxy-3-isopropylbenzyl)propanoyl)piperidin-4-yl)-5-cyclopropylisoxazole-3-carboxamide] is 1.09 µM; for `C[C@@H]1CC(NC(=O)c2cc(C3CC3)on2)CCN1C[C@H]1CC[C@H](N)CC1` (stereo partly drawn) [compound 113, N-((2R)-1-(((1r,4R)-4-aminocyclohexyl)methyl)-2-methylpiperidin-4-yl)-5-cyclopropylisoxazole-3-carboxamide] it is 4.59 µM.
Consider `CC1(C)CC(NC(=O)c2cc(C3CC3)on2)CCN1C(=O)[C@H]1CC[C@H](N)CC1` (stereo partly shown) [compound 114, N-(1-((1r,4r)-4-aminocyclohexane-1-carbonyl)-2,2-dimethylpiperidin-4-yl)-5-cyclopropylisoxazole-3-carboxamide], for which the IC50 was determined as 1.31 µM.
The figure for `C[C@H]1CC(NC(=O)c2cc(C3CC3)on2)CCN1C(=O)CC1(C)CCNCC1` (stereo partly drawn) [compound 115, 5-cyclopropyl-N-((2S)-2-methyl-1-(2-(4-methylpiperidin-4-yl)acetyl)piperidin-4-yl)isoxazole-3-carboxamide] is 0.472 µM; for `C[C@@H]1CC(NC(=O)c2cc(C3CC3)on2)CCN1C(=O)CC1(C)CCNCC1` (stereo partly drawn) [compound 116, 5-cyclopropyl-N-((2R)-2-methyl-1-(2-(4-methylpiperidin-4-yl)acetyl)piperidin-4-yl)isoxazole-3-carboxamide] it is 2.91 µM; for `C[C@H]1CC(NC(=O)c2cc(C3CC3)on2)CCN1C(=O)[C@H]1CCC[C@@H](N)C1` (stereo partly drawn) [compound 117, N-((2S)-1-((1S,3R)-3-aminocyclohexane-1-carbonyl)-2-methylpiperidin-4-yl)-5-cyclopropylisoxazole-3-carboxamide] it is 5.6 µM.
Under `CCOC(=O)C1CN(C(=O)CC2CCNCC2)CCC1NC(=O)c1cc(C2CC2)on1` (stereo not shown) [compound 119, ethyl 4-(5-cyclopropylisoxazole-3-carboxamido)-1-(2-(piperidin-4-yl)acetyl)piperidine-3-carboxylate] stands 2.99 µM.
For the compound `NC[C@@H](Cc1ccc(O)c(C(F)(F)F)c1)C(=O)N1CCC(NC(=O)c2cc(C3CC3)on2)CC1` [compound 120, (R)-N-(1-(3-amino-2-(4-hydroxy-3-(trifluoromethyl)benzyl)propanoyl)piperidin-4-yl)-5-cyclopropylisoxazole-3-carboxamide], the IC50 is 0.0816 µM.
The figure for `C[C@@H]1CC(NC(=O)c2cc(C3CC3)on2)CCN1C(=O)N1CCC(N)CC1` (stereo partly drawn) [compound 122, N-((2R)-1-(4-aminopiperidine-1-carbonyl)-2-methylpiperidin-4-yl)-5-cyclopropylisoxazole-3-carboxamide] is 0.851 µM; for `N[C@H]1CC[C@H](C(=O)N2CC3CC2CC3NC(=O)c2cc(C3CC3)on2)CC1` (stereo partly shown) [compound 123, N-(2-((1r,4r)-4-aminocyclohexane-1-carbonyl)-2-azabicyclo[2.2.1]heptan-5-yl)-5-cyclopropylisoxazole-3-carboxamide] it is 1.17 µM; for `O=C(NC1CC2CCCC(C1)N2C(=O)CC1CCNCC1)c1cc(C2CC2)on1` (stereo not shown) [compound 125, 5-cyclopropyl-N-(9-(2-(piperidin-4-yl)acetyl)-9-azabicyclo[3.3.1]nonan-3-yl)isoxazole-3-carboxamide] it is 7.76 µM.
Under `O=C(N[C@@H]1C[C@H]2CC[C@@H](C1)N2C(=O)CC1CCNCC1)c1cc(C2CC2)on1` [compound 126, 5-cyclopropyl-N-((1R,3s,5S)-8-(2-(piperidin-4-yl)acetyl)-8-azabicyclo[3.2.1]octan-3-yl)isoxazole-3-carboxamide] stands 9.86 µM; under `O=C(N[C@H]1C[C@H]2CC[C@@H](C1)N2C(=O)CC1CCNCC1)c1cc(C2CC2)on1` [compound 127, 5-cyclopropyl-N-((1R,3r,5S)-8-(2-(piperidin-4-yl)acetyl)-8-azabicyclo[3.2.1]octan-3-yl)isoxazole-3-carboxamide], 1.28 µM.
Consider `C[C@H]1CC(NC(=O)c2cc(C3CC3)on2)CCN1C(=O)CC1CC2CCC(C1)N2` (stereo partly drawn) [compound 128, N-((2S)-1-(2-(8-azabicyclo[3.2.1]octan-3-yl)acetyl)-2-methylpiperidin-4-yl)-5-cyclopropylisoxazole-3-carboxamide], for which the IC50 came to 0.844 µM.
On to `C[C@@H]1CC(NC(=O)c2cc(C3CC3)on2)CCN1C(=O)CC1CC2CCC(C1)N2` (stereo partly drawn) [compound 129, N-((2R)-1-(2-(8-azabicyclo[3.2.1]octan-3-yl)acetyl)-2-methylpiperidin-4-yl)-5-cyclopropylisoxazole-3-carboxamide], for which the IC50 was 0.595 µM.
Under `C[C@H]1CC(NC(=O)c2cc(C3CC3)on2)CCN1C(=O)C1CC2(CC(N)C2)C1` (stereo partly drawn) [compound 130, N-((2S)-1-(6-aminospiro[3.3]heptane-2-carbonyl)-2-methylpiperidin-4-yl)-5-cyclopropylisoxazole-3-carboxamide] stands 1.3 µM.
